From patent publication US20110257177A1, “BENZYLTHIOTETRAZOLE INHIBITORS OF STORE OPERATED CALCIUM RELEASE” (CalciMedica, Inc., priority 2008, published 2011)

Test system: JR^251 or RBL cells
Assay: Fluorescence-based assay of store-operated calcium entry, IC50 in either JR^251 or RBL cells, or both
Format: cell-based
Description: B. Fluorescence-based Assay of Store-Operated Calcium Entry in RBL-2H3Cells.
RBL-2H3 cells are obtained from ATCC and maintained in complete medium with 10% FBS at 37° C./6% CO2.
The day prior to performing the assay, RBL-2H3 cells are plated in 50 μL of complete medium in a 384 well plate. Cells are grown at 37° C./6% CO2 overnight and grow to 50-60% confluence by the next day. On the assay day, 1.5 μM Fluo-4-AM dye (Invitrogen) in complete medium is added and incubated for 1 hour at RT. Cells are washed twice in Ca^2+-free HBSS buffer and 35 μL Ca^2+-free HBSS buffer is added to each well. 10 μL of a test compound prepared in a Ca^2+-free HBSS solution at 4.5× of the desired concentration is added to a well and incubated for 5 minutes at RT. 10 μL of thapsigargin prepared in a Ca^2+-free HBSS solution at 5.5× of the desired concentration (5.5 uM) is added to each well and incubated for an additional 25 minutes. The initial baseline fluorescence signal is measured with a FLIPR^384 (Molecular Devices) plate reader. 5 μL of 12× calcium in HBSS (12 mM) is added and changes in cellular fluorescence are measured with the FLIPR^384 plate reader. In each well, the change in the fluorescent signal as a function of time due to calcium entry into the cell is determined by calculating the difference between the fluorescent signal measured 7 seconds after calcium addition and the initial baseline fluorescence signal at time zero (t=0). This parameter is designated Upslope. The IC50 value is calculated as the concentration at which 50% of the Upslope is inhibited.
C. Fluorescence-based Assay of Store-Operated Calcium Entry in Jurkat Cells.
Jurkat E6-1 cells were obtained from ATCC and maintained in complete medium with 10% FBS at 37° C./6% CO2.
The day prior to performing the assay, Jurkat E6-1 cells are seeded at a density of 2 million cells/mL in complete medium in a T-175 flask. Cells are grown at 37° C./6% CO2 overnight. On the following day, 1.5 μM Fluo-4-AM dye (Invitrogen) in complete medium is added and incubated for 1 hour at RT. Cells are harvested, washed twice in Ca^2+-free HBSS buffer and plated in 35 μL Ca^2+-free HBSS buffer in a 384 well plate. 10 μL of a test compound prepared in a Ca^2+-free HBSS solution at 4.5× of the desired concentration is added to a well and incubated for 5 minutes at RT. 10 μL of thapsigargin prepared in a Ca^2+-free HBSS solution at 5.5× of the desired concentration (5.5 uM) is added to each well and incubated for an additional 25 minutes. The initial baseline fluorescence signal is measured with a FLIPR^384 (Molecular Devices) plate reader. 5 μL of 12× calcium in HBSS (12 mM) is added and changes in cellular fluorescence are measured with the FLIPR^384 plate reader. In each well, the change in the fluorescent signal as a function of time due to calcium entry into the cell is determined by calculating the difference between the fluorescent signal measured 7 seconds after calcium addition and the initial baseline fluorescence signal at time zero (t=0). This parameter is designated Upslope. The IC50 value is calculated as the concentration at which 50% of the Upslope is inhibited.

IC50, < 10 µM:
Cc1ccccc1CSc1nnnn1-c1cccc(C)c1C [1-(2,3-dimethylphenyl)-5-(2-methylbenzylthio)-1H-tetrazole], COc1ccc(CSc2nnnn2-c2ccc(C)cc2C)cc1F [1-(2,4-dimethylphenyl)-5-(3-fluoro-4-methoxybenzylthio)-1H-tetrazole], COc1cccc(CSc2nnnn2-c2ccc(C)cc2C)c1 [1-(2,4-dimethylphenyl)-5-(3-methoxybenzylthio)-1H-tetrazole], Cc1ccc(C)c(-n2nnnc2SC(F)(F)c2c(F)c(F)c(F)c(F)c2F)c1 [1-(2,5-dimethylphenyl)-5-(perfluorobenzylthio)-1H-tetrazole], CCOc1ccc(C(C)=O)cc1CSc1nnnn1-c1cc(C)ccc1C [1-(3-((1-(2,5-dimethylphenyl)-1H-tetrazol-5-ylthio)methyl)-4-ethoxyphenyl)ethanone], Cc1ccc(C)c(-n2nnnc2SCc2ccccc2Br)c1 [5-(2-bromobenzylthio)-1-(2,5-dimethylphenyl)-1H-tetrazole]
